The values below come from article PMC9207808 (ACS Chemical Biology, 2022).

In test [1] the test system is DocSTm. The test can be described thus: Differential scanning fluorimetry (thermal stabilisation of Doc). The test is classed as binding, S. Typhimurium. As to conditions: for melting temperature shift ΔTm: DSF, DocSTm 5 μM, analyte 50 μM, Tm with analyte minus Tm of free DocSTm (42.9 ± 0.9 °C), SYPRO Orange, 20 mM K2HPO4, 50 mM (NH4)2SO4, pH 8.0, triplicate; for Average Tm / Tm: DocSTm 5 µM + 50 µM binder; for Average Tm: average of 3 replicates. The method, then: Experiments were performed in a Mx3005P qPCR System (Agilent) collecting fluorescence data with a temperature ramp of 25 to 95 °C. Samples were prepared in a buffer containing 20 mM K2HPO4 and 50 mM (NH4)2SO4 at pH 8.0. The SYPRO Orange dye (Sigma-Aldrich, 5000× stock in DMSO) was used to monitor protein denaturation and was diluted to a final concentration of 3×. For binding experiments, the final concentration of Doc was 5 μM. Each condition was performed in triplicate (ESI section 4) and the melting curves were plotted using GraphPad Prism 5 (GraphPad Software, U.S.A.). The melting temperatures were obtained by fitting the sigmoidal section of the curves to a Boltzmann sigmoid function.

For test [2], the target named is DocSTm. The test can be described thus: Surface plasmon resonance binding to immobilised Doc. More on the design: species or system S. Typhimurium. As to conditions: for koff × 10^-6 / kon × 10^6: 1:1 kinetic fit, mean ± SD of at least 3 replicates; for kon × 10^6: single-cycle kinetics (multicycle for PhdSTm1-73); for Half-life of the complex: t1/2 = ln2 / koff. As for the experimental part: Experiments were performed in a Biacore S200 (Cytiva) with a Series S sensor chip NTA (Cytiva). The data was analyzed using the Biacore Evaluation Software (Cytiva) and curves were plotted using GraphPad Prism 5 (GraphPad Software, U.S.A.). All experiments were performed at 22 °C with a running buffer containing 10 mM HEPES, 500 mM NaCl, 50 μM EDTA, and 0.005% (v/v) TWEEN 20 at pH 8.0. The surface was conditioned following the standard manufacturer’s guidelines and protein immobilization was performed with a 30–60 s pulse (flow rate of 5 μL/min) of Doc (150 nM) in running buffer. […] Surface regeneration was performed with a 1 min pulse of 0.5 M imidazole followed by a 1 min pulse of 0.35 M of EDTA at pH 8.0.
Binding to Doc was performed using a multicycle kinetics (MCK) setup for peptides 7, 10, and 14, while the remaining samples were tested using a single-cycle kinetics (SCK) setup. The surface was fully regenerated in between each analyte in both cases. In the MCK experiments, increasing concentrations of each analyte were injected with an 80 s pulse (30 μL/min) and dissociation times varied depending on the time required to fully dissociate the complex. The double-referenced sensorgrams (raw data subtracted from a blank injection and reference surface responses) were analyzed using a kinetic and/or a steady-state 1:1 binding model. In the SCK experiments, typically six concentrations of each analyte were sequentially injected with 80 s pulses (30 μL/min), and dissociation times varied depending on the time required to dissociate at least 5% of the complex. The double-referenced sensorgrams were fitted using a kinetic 1:1 binding model.
At least three independent replicates were measured for each analyte (ESI section 5). When a steady-state fit was applied, the reported Kd and its uncertainty correspond, respectively, to the average and standard deviations of the Kd obtained in each measurement. When a kinetic fit was applied, the reported rate constants (kon and koff) and their uncertainties correspond, respectively, to the average and standard deviations of the rate constants obtained in each measurement. In this case, reported Kd were calculated using the equation below, and the standard deviation of the rate constants was propagated. [drawing 1]

The test system of test [3] is DocSTm. The test can be described thus: Dot blot phosphorylation assay (EF-Tu phosphorylation by Doc). The settings on record: α-pThr, DocSTm 1 μM, EF-TuSTm 3 μM, ATP 1 mM, inhibitor 10 μM to 5 nM (3-fold dilutions), 16 h at RT. The class given is biochemical, S. Typhimurium. The method, then:
Samples were prepared to a final volume of 10 μL. […] Samples were incubated for 16 h at RT and subsequently spotted on a nitrocellulose membrane. Phosphorylated EF-Tu was detected by immunodecoration using a rabbit monoclonal antiphosphothreonine antibody (Abcam, ab218195) at 1:2000 dilution (1 h at 4 °C), followed by incubation with a goat antirabbit IgG (H+L) HRP conjugate antibody (Advansta) at 1:10 000 dilution (1 h at RT). Chemiluminescence was developed using the HRP Luminata kit (Merck, WBLUR0100) and captured by an ImageQuant LAS4000 Western blot imaging system (Cytiva).

[4] abbreviates: SPR, kinetic fit, KD calculated from mean koff and kon, SD propagated, 22 °C, pH 8.0.

“Also recorded” adds a separate entry of the source. Residues, ends and D or L forms follow the SMILES beside them.

On to `CC[C@H](C)[C@H](NC(=O)[C@H](C)NC(=O)[C@H](C)NC(=O)[C@H](Cc1ccccc1)NC(=O)[C@H](CCC(=O)O)NC(=O)[C@H](CC(=O)O)NC(=O)[C@H](CC(=O)O)NC(=O)[C@H](CCSC)NC(=O)[C@H](Cc1c[nH]c2ccccc12)NC(C)=O)C(=O)N[C@@H](CCSC)C(=O)N[C@@H](C)C(=O)N[C@H](C(=O)N[C@@H](Cc1c[nH]cn1)C(=O)NCC(=O)N[C@@H](CC(N)=O)C(=O)N[C@@H](CCC(=O)O)C(=O)N[C@@H](CC(C)C)C(=O)N[C@@H](CCCNC(=N)N)C(=O)N[C@@H](CCC(=O)O)C(=O)N[C@@H](CC(C)C)C(=O)N[C@@H](C)C(=O)O)C(C)C` [peptide 20] (Ac-WMDDEFAAIMAVHGNELRELA-OH; N-terminus and C-terminus assumed), for which the “melting temperature shift ΔTm” value with DocSTm [1] came to 25.6 ± 0.9 °C. Besides, the “Average Tm” value in the test with DocSTm [1] amounted to 68.5 ± 0.1 °C. Also, the Tm amounted to 68.5 °C in the test with DocSTm [1] (replicate 1), 68.4 °C in the test on DocSTm [1] (replicate 2) and 68.5 °C with DocSTm [1] (replicate 3). Moreover, the Kd was 0.447 nM at DocSTm [2] (SPR kinetic fit, replicate 1); 0.414 nM on DocSTm [2] (SPR kinetic fit, replicate 2); 0.424 nM at DocSTm [2] (SPR kinetic fit, replicate 3); 0.428 ± 0.023 nM at DocSTm [2] (setting [4]). Also, the “koff × 10^-6” value in the test with DocSTm [2] (SPR, 22 °C, pH 8.0) is reported as 393 ± 18 ×10^-6 s-1. The “kon × 10^6” value in the test on DocSTm [2] (SPR, 22 °C, pH 8.0) is 0.917 ± 0.023 ×10^6 M-1 s-1. For the same compound, the “Half-life of the complex” value in the test on DocSTm [2] turned out to be 29.4 ± 1.2 min. In addition, the “inhibition of EF-TuSTm phosphorylation by DocSTm (in words)” value (“inhibition of EF-TuSTm phosphorylation” below) with DocSTm [3] is recorded as “inhibition of DocSTm comparable to 1”.

Turning to `CC[C@H](C)[C@H](NC(=O)[C@H](C)NC(=O)[C@H](C)NC(=O)[C@H](Cc1ccccc1)NC(=O)[C@H](CCC(=O)O)NC(=O)[C@H](Cc1c[nH]c2ccccc12)NC(C)=O)C(=O)N[C@@H](CCSC)C(=O)N[C@@H](C)C(=O)N[C@H](C(=O)N[C@@H](Cc1c[nH]cn1)C(=O)NCC(=O)N[C@@H](CC(N)=O)C(=O)N[C@@H](CCC(=O)O)C(=O)N[C@@H](CC(C)C)C(=O)N[C@@H](CCCNC(=N)N)C(=O)N[C@@H](CCC(=O)O)C(=O)N[C@@H](CC(C)C)C(=O)N[C@@H](C)C(=O)N[C@@H](CC(=O)O)C(=O)N[C@@H](CCCCN)C(=O)O)C(C)C` [peptide 21] (Ac-WEFAAIMAVHGNELRELADK-OH; N-terminus and C-terminus assumed), the “melting temperature shift ΔTm” value in the test with DocSTm [1] came out at 19.3 ± 0.9 °C. The “Average Tm” value with DocSTm [1] turned out to be 62.2 ± 0.2 °C. For the same compound, the Tm with DocSTm [1] (replicate 1) was 62.3 °C; in the test with DocSTm [1] (replicate 2) it was 62.0 °C; with DocSTm [1] (replicate 3) it was 62.4 °C. For the same compound, the Kd was 0.41 nM at DocSTm [2] (SPR kinetic fit, replicate 1); 0.412 nM at DocSTm [2] (SPR kinetic fit, replicate 2); 0.365 nM on DocSTm [2] (SPR kinetic fit, replicate 3); 0.396 ± 0.052 nM at DocSTm [2] (setting [4]). The “koff × 10^-6” value with DocSTm [2] (SPR, 22 °C, pH 8.0) was 496 ± 58 ×10^-6 s-1. Besides, in the test on DocSTm [2] (SPR, 22 °C, pH 8.0), the “kon × 10^6” value was 1.252 ± 0.080 ×10^6 M-1 s-1. For the same compound, the “Half-life of the complex” value with DocSTm [2] worked out at 23.4 ± 3 min. The “inhibition of EF-TuSTm phosphorylation” value with DocSTm [3] is on record as “inhibition of DocSTm comparable to 1”.

Turning to `CC[C@H](C)[C@H](NC(=O)[C@H](C)NC(=O)[C@H](C)NC(=O)[C@H](Cc1ccccc1)NC(=O)[C@H](CCC(=O)O)NC(=O)[C@H](Cc1c[nH]c2ccccc12)NC(C)=O)C(=O)N[C@@H](CCSC)C(=O)N[C@@H](C)C(=O)N[C@H](C(=O)N[C@@H](Cc1c[nH]cn1)C(=O)NCC(=O)N[C@@H](CC(N)=O)C(=O)N[C@@H](CCC(=O)O)C(=O)N[C@@H](CC(C)C)C(=O)N[C@@H](CCCNC(=N)N)C(=O)N[C@@H](CCC(=O)O)C(=O)N[C@@H](CC(C)C)C(=O)N[C@@H](C)C(=O)O)C(C)C` [peptide 22] (Ac-WEFAAIMAVHGNELRELA-OH; N-terminus and C-terminus assumed), the “melting temperature shift ΔTm” value with DocSTm [1] was determined as 16.3 ± 0.9 °C. Besides, the “Average Tm” value in the test with DocSTm [1] worked out at 59.2 ± 0.3 °C. Also, the values for the Tm with DocSTm [1] (replicate 1), in the test with DocSTm [1] (replicate 2) and in the test with DocSTm [1] (replicate 3) were 58.89 °C, 59.16 °C and 59.42 °C, respectively. The Kd was determined as 0.342 nM on DocSTm [2] (SPR kinetic fit, replicate 1); 0.336 nM on DocSTm [2] (SPR kinetic fit, replicate 2); 0.365 nM on DocSTm [2] (SPR kinetic fit, replicate 3). Also, in the test with DocSTm [2] (SPR, 22 °C, pH 8.0), the “koff × 10^-6” value is 503 ± 16 ×10^-6 s-1. The “kon × 10^6” value with DocSTm [2] (SPR, 22 °C, pH 8.0) was 1.449 ± 0.085 ×10^6 M-1 s-1. In addition, the “Half-life of the complex” value in the test with DocSTm [2] amounted to 22.8 ± 0.6 min. Also, the “inhibition of EF-TuSTm phosphorylation” value with DocSTm [3] was “severe loss of inhibitory activity; also recorded: poor DocSTm inhibitors”.
